According to patent EP0254663B1, “2-(2-Phosphonoxyphenyl-Carbonyloxy)benzoic acid, salts thereof, a process for the preparation thereof” (SUEROS, ANTIBIOTICOS Y LABORATORIO DE VACUNOTERAPIA, …, priority 1986, dated 1988):

How the values were obtained:
[1] = tested on: motor activity inhibition produced by inflammatory pain; test: correction of motor activity inhibition produced by inflammatory pain; type: in vivo; conditions: 200 mg/kg
Experimental: PSS and ASA afford a 90 % correction of the motor activity inhibition produced by inflammatory pain at 200 mg/kg.

[2] = tested on: pain induced in mouse by i.p. injection of acetic acid; test: pain induced in mouse by i.p. injection of acetic acid; type: in vivo; conditions: i.p. acetic acid 30 minutes after oral administration
Experimental: The inhibitory dose30 levels (ID-30) for pain induced in mouse by i.p. injection of acetic acid 30 minutes after oral administration were: 46.3, 98.15, 40 and 129.6 for PSS, PS (phosphosal), ASA and SS, respectively.

[3] = tested on: carrageenin induced rat paw oedema; test: carrageenin induced rat paw oedema; type: in vivo; conditions: 200 mg/kg
Experimental: PSS has a 49 % anti-inflammatory activity at 200 mg/kg on carrageenin induced rat paw oedema.

ulcerogenic activity = conditions: in vivo
Description: The ulcerogenic activity of PSS (ulcerogenic index - 3.16) is lower than that of ASA (UI = 10.54) or indo- methacin (Ul - 25.28).

beer yeast induced fever = beer yeast induced fever in the rat; type: in vivo
[4] = salicylic acid levels after continued administration for 14 days; type: in vivo; conditions: continued administration at equal dose levels for 14 days
acute oral toxicity = conditions: in vivo, read-out: Acute toxicity (LDso)
adjuvant arthritis = adjuvant arthritis inhibition; type: in vivo; conditions: 100-200 mg/kg/day, for 14 days
Experimental: At doses ranging from 100-200 mg/kg/day, for 14 days, PSS inhibits adjuvant arthritis by 40 - 50 %. At equal dose levels, inhibition by ASA is 0 - 39 %.

[5] = tested on: serum reducing activity (SH group levels); test: correction of depressed serum reducing activity (SH group levels) in adjuvant arthritis; type: in vivo; conditions: 200 mg/kg/day
Experimental: In adjuvant arthritis, there is observed a depression of the serum reducing activity (SH group levels). PSS affords a 100 % correction at 200 mg/kg/day, while at equal dose levels ASA only affords a 60 % correction.

[6] = gastrointestinal hemorrhages, blood in faeces (radioisotope method); type: in vivo; conditions: 400 mg/kg, faeces excreted during the following 4 days
[7] = tested on: death by respiratory distress caused by i.v. injection of arachidonic acid; test: protection from death by respiratory distress caused by i.v. arachidonic acid; type: in vivo
Experimental: ASA provides 72 % protection at 50 mg/kg.

O=C(O)c1ccccc1OP(=O)(O)O [PS, salicylic acid phosphonate]
correction of the motor activity inhibition produced by inflammatory pain [1]: 65% | inhibitory dose30 levels (ID-30) [2]: 98.15

O=C(Oc1ccccc1C(=O)O)c1ccccc1O [SS, 2-(2-hydroxyphenylcarbonyloxy) benzoic acid]
correction of the motor activity inhibition produced by inflammatory pain [1]: 32.6% | inhibitory dose30 levels (ID-30) [2]: 129.6 | anti-inflammatory activity [3]: 24%

O=C(O)c1ccccc1OC(=O)c1ccccc1OP(=O)(O)O [PSS, 2-(2-phosphonoxyphenylcarbonyloxy) benzoic acid]
ulcerogenic index (ulcerogenic activity): 3.16 | correction of the motor activity inhibition produced by inflammatory pain [1]: 90% | antipyretic activity (beer yeast induced fever): superior to ASA and inferior to paracetamol | salicylic acid levels [4]: much higher salicylic acid levels for PSS than for ASA | LD50 (acute oral toxicity): 1590 mg/kg | inhibition of adjuvant arthritis (adjuvant arthritis): 40 - 50% | correction of depression of the serum reducing activity (SH group levels) [5]: 100% | inhibitory dose30 levels (ID-30) [2]: 46.3 | anti-inflammatory activity [3]: 49% | Gastrointestinal hemorrhages, measured as µl blood in faeces [6]: significantly lower than those caused by ASA | protection from death by respiratory distress ([7]; 100 mg/kg): does not protect

COc1ccc2c(c1)c(CC(=O)O)c(C)n2C(=O)c1ccc(Cl)cc1 [indo- methacin]
ulcerogenic index (ulcerogenic activity): 25.28

CC(=O)Oc1ccccc1C(=O)O [ASA, acetyl salycilic acid]
ulcerogenic index (ulcerogenic activity): 10.54 | correction of the motor activity inhibition produced by inflammatory pain [1]: 90% | LD50 (acute oral toxicity): 1100 mg/kg | inhibition of adjuvant arthritis (adjuvant arthritis): 0 - 39% | correction of depression of the serum reducing activity (SH group levels) [5]: 60% | inhibitory dose30 levels (ID-30) [2]: 40 | anti-inflammatory activity [3]: 61% | protection from death by respiratory distress ([7]; 50 mg/kg): 72%
